Entries after “also recorded” stand apart in the source; their conditions may differ.
What was measured:
[1] = molecular target: T1, FXR-RXRm (Rattus norvegicus, UniProt Q62735); assay: Transient transfection activation assay in CV-1 cells, FXR + RXRm; format: cell-based; conditions: 100 nM
T1 sequence (Q62735 1-469): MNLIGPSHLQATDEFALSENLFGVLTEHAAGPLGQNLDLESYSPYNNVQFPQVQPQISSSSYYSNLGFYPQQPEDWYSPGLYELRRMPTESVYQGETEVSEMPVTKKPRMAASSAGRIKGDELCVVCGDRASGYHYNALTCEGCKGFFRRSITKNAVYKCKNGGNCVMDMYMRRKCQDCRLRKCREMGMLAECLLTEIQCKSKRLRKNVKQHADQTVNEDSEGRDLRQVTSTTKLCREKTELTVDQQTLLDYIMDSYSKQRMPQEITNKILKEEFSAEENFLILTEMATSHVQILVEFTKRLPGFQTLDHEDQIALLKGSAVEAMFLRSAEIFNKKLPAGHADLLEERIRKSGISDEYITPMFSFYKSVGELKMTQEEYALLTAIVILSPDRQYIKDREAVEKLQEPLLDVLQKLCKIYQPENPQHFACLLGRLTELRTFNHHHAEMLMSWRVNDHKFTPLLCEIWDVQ
Method: (§1) A variety of commercially available bile acids (Sigma) were tested for their ability to activate known FXR-RXR (FIG. 9; left panel) and FXR-RXRm (FIG. 9, right panel).
(§2) CV-1 cells were grown in Dulbecco's Modified Eagle's medium supplemented with 10% resin-charcoal stripped fetal bovine serum, 50 U/ml penicillin G and 50 μg/ml streptomycin sulfate (DMEM-FBS) at 37° C. in 5% CO2. One day prior to transfection, cells were plated to 50-80% confluence using phenol-red free DMEM-FBS.

[2] = molecular target: T2, FXR-RXR heterodimers (Rattus norvegicus, UniProt Q62735); assay: Transient transfection activation assay in CV-1 cells, EcRE×6 reporter, FXR + RXR; format: cell-based
T2 sequence (Q62735 1-469): T1 sequence (Q62735 1-469)
T2 sequence (P19793 1-462 partner): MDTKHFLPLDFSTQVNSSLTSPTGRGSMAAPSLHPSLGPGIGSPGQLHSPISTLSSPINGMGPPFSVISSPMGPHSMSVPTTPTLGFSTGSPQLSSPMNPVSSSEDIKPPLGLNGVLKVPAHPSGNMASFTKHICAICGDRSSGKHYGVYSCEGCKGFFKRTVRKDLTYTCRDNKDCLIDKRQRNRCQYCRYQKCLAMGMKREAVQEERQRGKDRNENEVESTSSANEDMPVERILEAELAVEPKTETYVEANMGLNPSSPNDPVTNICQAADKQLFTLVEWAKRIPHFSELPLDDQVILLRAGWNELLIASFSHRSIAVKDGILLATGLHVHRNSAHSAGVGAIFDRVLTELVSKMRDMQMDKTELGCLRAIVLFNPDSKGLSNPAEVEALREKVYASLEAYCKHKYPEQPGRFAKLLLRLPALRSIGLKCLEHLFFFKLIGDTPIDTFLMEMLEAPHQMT
From the text: Suitable reporter gene constructs are well known to skilled workers in the fields of biochemistry and molecular biology. Reporter/receptor pairs used in the assay reported in FIG. 1 are listed in Table I. All transfections additionally contained CMV-βgal as an internal control. Suitable constructs for use in the these studies may conveniently be cloned into pCMV. pCMV contains the cytomegalovirus promoter/enhancer followed by a bacteriophage T7 promoter for transcription in vitro. Other vectors known in the art can be used in the methods of the present invention.
CV-1 cells for the activation assays were grown in Dulbecco's modified Eagle's medium supplemented with 10% resin charcoal-stripped fetal bovine serum, 50 U/ml penicillin G and 50 μg/ml streptomycin sulfate (DMEM-FBS) at 37° C. in 5% CO2. One day prior to transfection, cells were plated to 50-80% confluence using phenol red free DMEM-FBS.
The cells were transiently transfected by lipofection. Reporter constructs (300 ng/10^5 cells) and cytomegalovirus-driven expression vectors (20-50 ng/10^5 cells) were added, with CMV-β-gal (500 ng/10^5 cells) as an internal control. After 2 hours, the liposomes were removed and the cells were treated for approximately 45 hours with phenol red free DMEM-FBS containing the test bile acid and other compounds.
Any compound which is a candidate for activation of FXR may be tested by this method. […] After exposure to ligand, the cells were harvested and assayed for β-galactosidase activity (control) and activity of the specific reporter gene.
Activity of the reporter gene can be conveniently normalized to the internal control and the data plotted as fold activation relative to untreated cells.
as §1, §2

[3] = molecular target: T3, FXR (Rattus norvegicus, UniProt Q62735); assay: Transient transfection assay, FXR + RXR with liver bile acid transporter; format: cell-based; conditions: for EC50: with the liver bile acid transporter
T3 sequence (Q62735 1-469): T1 sequence (Q62735 1-469)
T3 sequence (P19793 1-462 partner): T2 sequence (P19793 1-462 partner)
From the text: The liver and ileum express tissue-specific bile acid transport proteins for efficient uptake of these compounds. […] CV-1 cells therefore were co-transfected with a human liver bile acid transporter (accession L21893). Use of this transporter allows hydrophilic bile acid or bile acid-derived compounds or compounds, which due to their structural similarity to bile acid are transported by the transporter, to be tested for activation of the intracellular bile acid nuclear receptor. […] Any suitable non-specific transporter may also be used.
After transfection, cells were treated with 100 μM concentrations of the indicated bile acid.
In addition to the structure-activity studies, dose-response analyses were performed for some bile acid nuclear receptor ligands. For these analyses, shown in FIG. 11, CV-1 cells were transfected as above, with the liver bile acid transporter, and treated with the indicated varying concentrations of each bile acid.

[4] = molecular target: T4, FXR-RXR heterodimers (Rattus norvegicus, UniProt Q62735); assay: In vitro coactivator recruitment assay (mobility shift), FXR + RXR, GST-GRIP1; format: biochemical
T4 sequence (Q62735 1-469): T1 sequence (Q62735 1-469)
T4 sequence (P19793 1-462 partner): T2 sequence (P19793 1-462 partner)
T4 sequence (Q61026 625-765 partner limits assumed): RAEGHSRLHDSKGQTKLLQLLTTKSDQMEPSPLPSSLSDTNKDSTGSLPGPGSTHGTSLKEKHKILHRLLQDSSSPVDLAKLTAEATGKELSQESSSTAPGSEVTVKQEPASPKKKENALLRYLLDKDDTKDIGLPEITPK
Method: In vitro coactivator recruitment assays were performed by adding the ligand to a mixture of the following components: FXR, 9-cis retinoic acid receptor, a coactivator, and a labeled FXR response element (probe). […] GRIP1 was expressed in bacteria and purified for these assays. The GST-GRIP1 construct, containing the three receptor interaction domains of mouse GRIP1 (Arg 625-Lys 765, accession U39060) fused to glutathione-S-transferase, was created for bacterial expression of the GRIP1 coactivator.
After addition of the putative ligand to the mixture of components describe above and mixing, the mixture is incubated under conditions.
GST-GRIP1 was expressed in E. coli and purified on glutathione-sepharose columns. […] Complexes were electrophoresed through a 5% polyacrylamide gel in 0.5×TBE (45 mM Tris base, 45 mM boric acid, 1 mM EDTA) at room temperature. Electrophoretic mobility indicated recruitment of coactivator.

[5] = system: RXRα; PPARα, γ and δ; VDR; T3Rβ; RAR; PXR; LXRα and CARβ; assay: Activation of other receptors by CDCA (data not shown)
[6] = molecular target: T5, RXR (GAL-L-RXR) (Homo sapiens, UniProt P19793); assay: GAL4 chimera activation assay in CV-1 cells, UASG×4 reporter, GAL-L-RXR
T5 sequence (P19793 203-462): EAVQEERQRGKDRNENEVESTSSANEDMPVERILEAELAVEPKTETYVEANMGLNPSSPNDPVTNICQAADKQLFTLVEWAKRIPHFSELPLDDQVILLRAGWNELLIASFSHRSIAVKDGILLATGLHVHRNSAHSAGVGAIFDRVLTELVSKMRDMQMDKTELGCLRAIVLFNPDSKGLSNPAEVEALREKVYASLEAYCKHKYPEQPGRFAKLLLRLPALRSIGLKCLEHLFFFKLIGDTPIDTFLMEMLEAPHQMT

[7] = system: FXR derived from human, rat and mouse; assay: Antagonism of CDCA activation of FXR in CV-1 cells; format: cell-based; conditions: 50 μM CDCA, 20 μM azole compound
Method: The FXR receptor activation assays disclosed herein may be used not only to test compounds for activation of FXR as above, but also for compounds which antagonize FXR activation. […] See Example 7.
CV-1 cells were grown in DMEM supplemented with 10% resin-charcoal stripped fetal bovine serum, 50 U/ml penicillin G and 50 μg/ml streptomycin sulfate at 37° C. in 5% CO2. Cells were plated to 50-80% confluence one day prior to transfection using phenol red-free DMEM-FBS. The cells were transfected by lipofection using N-[1-(2,3-dioleoyloxy)propyl]-N,N,N-ammonium methyl sulfate according to manufacture's instructions (Boehringer Mannheim). The cells were transfected with a CMV expression vector containing the FXR indicated in FIG. 16 (none, −; human, hFXR; rat, rFXR; or mouse, mFXR) and RXR. The luciferase reporter construct contained the herpesvirus thymidine kinase promoter (−105/+51) linked to six copies of the response element hsp27 EcRE. […] After exposure to the agonist and candidate antagonist compounds, cells were harvested and assayed for luciferase and β-galactosidase activity. […] Therefore, clotrimazole, Compound A and Compound B were selected from the screen as FXR receptor antagonists.

[8] = molecular target: T6, FXR + RXRm (Rattus norvegicus, UniProt Q62735); assay: In vitro coactivator recruitment assay (mobility shift), FXR + RXRm, GST-GRIP1; format: biochemical
T6 sequence (Q62735 1-469): T1 sequence (Q62735 1-469)
T6 sequence (Q61026 625-765 partner): T4 sequence (Q61026 625-765 partner limits assumed)
Method: In vitro coactivator recruitment assays were performed by adding the ligand to a mixture of the following components: FXR, 9-cis retinoic acid receptor, a coactivator, and a labeled FXR response element (probe). A polyamino acid containing the receptor interaction domains of co-activator GRIP1 may be used as the coactivator, however any functional coactivator or coactivator complex is contemplated for use in this assay. GRIP1 was expressed in bacteria and purified for these assays. The GST-GRIP1 construct, containing the three receptor interaction domains of mouse GRIP1 (Arg 625-Lys 765, accession U39060) fused to glutathione-S-transferase, was created for bacterial expression of the GRIP1 coactivator. […] Response elements suitable for use in this assay may be any nucleic acid probe which is substantially homologous to the target DNA sequence of the bile acid nuclear receptor.
After addition of the putative ligand to the mixture of components describe above and mixing, the mixture is incubated under conditions. […] Techniques such as, for example, thin layer chromatography, high pressure liquid chromatography, size exclusion chromatography, sedimentation, immunoseparation techniques, or any other convenient method known in the art may be used.
To distinguish between binding through the FXR and RXR subunits, the coactivator recruitment assays were repeated substituting RXRm for RXR. […]

[9] = bile acids 100 μM, no bile acid transporter

For Cc1cc2c(cc1C1(c3ccc(C(=O)O)cn3)CC1)C(C)(C)CCC2(C)C [LG268], the “response of FXR-RXRm” value [1] was “little or no response”.

C[C@H](CCC(=O)O)[C@H]1CC[C@H]2[C@@H]3C[C@@H](O)[C@@H]4C[C@H](O)CC[C@]4(C)[C@H]3CC[C@]12C [murocholic acid] was tested, and the “activity as FXR activator” value [2, 9] was “inactive”.

For C[C@H](CCC(=O)O)[C@H]1CC[C@H]2[C@@H]3C(=O)C[C@@H]4C[C@H](O)CC[C@]4(C)[C@H]3CC[C@]12C [7-ketolithocholic acid, 5β-cholanic acid-3α-ol-7-one], the “activity as FXR activator” value [2, 9] was “activity intermediate between CDCA and UDCA”.

In the case of C[C@H](CCC(=O)O)[C@H]1CC[C@H]2[C@@H]3[C@H](O)C[C@@H]4C[C@H](O)CC[C@]4(C)[C@H]3C[C@H](O)[C@]12C [CA, cholic acid], the “activity as FXR activator” value [2, 9] is reported as “inactive”, the “activation of FXR” value ([3]; 100 μM, coexpression of the liver bile acid transporter) is reported as 170 fold and the “coactivator recruitment by FXR-RXR” value [4] is reported as “less effective”.

With C[C@H](CCC(=O)O)[C@H]1CC[C@H]2[C@@H]3[C@H](O)C[C@@H]4C[C@H](O)CC[C@]4(C)[C@H]3CC[C@]12C [CDCA, chenodeoxycholic acid] the “activation of other receptors” value [5] was “failed to activate” and the “activation of GAL-L-RXR chimera” value [6] was “did not activate”.

C[C@H](CCC(=O)O)[C@H]1CC[C@H]2[C@@H]3CC[C@@H]4C[C@H](O)CC[C@]4(C)[C@H]3CC[C@]12C [LCA, lithocholic acid] showed an EC50 [3] of roughly 50 µM.

With CC(=O)N1CCN(c2ccc(OCC3COC(Cn4ccnc4)(c4ccc(Cl)cc4Cl)O3)cc2)CC1 (stereo not shown) [ketonazole] the “antagonism of CDCA activation of FXR” value [7] was “inactive”.

C[C@H](CCC(=O)NCC(=O)O)[C@H]1CC[C@H]2[C@@H]3CC[C@@H]4C[C@H](O)CC[C@]4(C)[C@H]3CC[C@]12C [glyco-LCA] was tested, and the “coactivator recruitment by FXR-RXRm” value [8] was “recruited coactivator”.

For FC(F)(F)c1cccc(C(c2ccccc2)(c2ccccc2)n2ccnc2)c1 [Compound A], the “antagonism of CDCA activation of FXR” value [7] was “displayed antagonist properties; also recorded: significant but weak activity”.

In the case of C[C@H](CCC(=O)O)[C@H]1CC[C@H]2[C@@H]3[C@H](O)[C@@H](O)[C@@H]4C[C@H](O)CC[C@]4(C)[C@H]3CC[C@]12C [α-muricholic acid], the “activity as FXR activator” value [2, 9] is reported as “inactive”.

With Clc1ccccc1C(c1ccccc1)(c1ccccc1)n1ccnc1 [clotrimazole] the “antagonism of CDCA activation of FXR” value [7] was “strongest effect; also recorded: strongly active”.

In the case of C[C@H](CCC(=O)O)[C@H]1CC[C@H]2[C@@H]3[C@H](O)[C@H](O)[C@@H]4C[C@H](O)CC[C@]4(C)[C@H]3CC[C@]12C [hyocholic], the “activity as FXR activator” value [2, 9] is reported as “inactive”.

In the case of c1ccc(-c2cn(C(c3ccccc3)(c3ccccc3)c3ccccc3)cn2)cc1 [Compound B], the “antagonism of CDCA activation of FXR” value [7] is reported as “displayed antagonist properties; also recorded: demonstrate inhibition of FXR activation”.

For C[C@H](CCC(=O)O)[C@H]1CC[C@H]2[C@@H]3[C@H](O)C[C@@H]4C[C@H](O)CC[C@]4(C)[C@H]3CC[C@]12C (single isomer, unassigned) [peak Z, chenodeoxycholic acid], the “effect on RXR” value ([6]; HPLC fractions, 25 μg/ml) was “no effect”.

For C[C@H](CCC(=O)O)[C@H]1CC[C@H]2[C@@H]3CC[C@@H]4C[C@H](O)CC[C@]4(C)[C@H]3C[C@H](O)[C@]12C [DCA, deoxycholic acid], the EC50 [3] was roughly 50 µM.

In the case of COC(=O)/C=C(\C)CC/C=C(\C)CC[C@H]1OC1(C)C [JH III, juvenile hormone III], the “activity as FXR activator” value ([2]; 50 μM) is reported as “far weaker activity relative to the most efficacious bile acids”.

Reference: patent US20020132223A1, “Methods for modulating activity of the FXR nuclear receptor” (City of Hope, priority 1999, published 2002)
